One data set relates to LDLr-null mice. Kind of data set: in vivo efficacy study: plasma total cholesterol in high-fat-fed LDLr-null mice. More on the design: species or system mouse. The source says:
Encouraged by the above findings, we carried out a 2-week pilot study to determine the effect of 1 on plasma total cholesterol levels. As an animal model, we employed the LDLr-null mouse, which has a human-like lipoprotein profile and is a leading animal model for studying hypercholesterolemia and atherogenesis. Considering that the abiotic nature of cyclic D,L-α-peptides renders them highly resistant to proteolysis, we chose to conduct this pilot in vivo efficacy study via the more convenient oral route of administration. Thus, the cyclic D,L-α-peptide was administered orally in the drinking water for two weeks (each mouse drank ˜0.5 mg peptide per day, or ˜25 mg/kg/day) to mice maintained on a high-fat diet.
In vivo efficacy study: LDL receptor-null (LDLr^−/−) mice on a C57BL/6J background were initially purchased from Jackson Laboratories (Bar Harbor, Me.) and were bred in house. The mice were weaned at 4 weeks of age and were fed ad libitum a standard chow diet (Harlan Teklad 7019) until they were 10-weeks old, when they were switched to a high-fat Western diet (WD) containing 15.8% (wt/wt) fat, 1.25% (wt/wt) cholesterol, and no cholate (Harlan Teklad 94059). At the time that the WD was started, the test cyclic peptide was added to the drinking water at a high dose of 180 μM (200 μg/mL) or a low dose of 18 μM (20 μg/mL) and the mice (female, n=8 per dosing group) were continued on WD for 10 weeks. The lyophilized peptide was easily dissolved in PBS (pH 7.4) containing 1% sucrose, resulting in a clear solution. The drinking water solution was replaced with fresh solution every day. A control group of eight mice (female, n=8) were fed WD with vehicle (PBS with 1% sucrose) drinking water. The mice consumed approximately 2.5 mL of water per day per mouse, and there was no significant difference in water or food consumption between groups.
Effect of cyclic peptides on plasma total cholesterol: The mice were bled after two weeks of treatment and at the time of harvest (10 weeks). The blood (200 μL) was collected after an overnight fast (14-16 h) by retro-orbital puncture into a heparinized capillary tube at two weeks, or by cardiac puncture into EDTA anti-coagulant coated tubes at the time of harvest (10 weeks). Plasma was separated from whole blood immediately by centrifugation of the blood samples at 5000 rpm for 10 min at 4° C., and was then stored at −80° C. Plasma total cholesterol (TC) was measured using an enzymatic colorimetric method kit (Amplex® red cholesterol assay kit, No. A12216, Life Technologies) according to the manufacturer's instructions.
In addition, several peptides were administered orally to mice at a 35 mg/kg dose (unless otherwise noted) in the drinking water for two weeks. The female LDLr-null mice maintained on a high-fat diet were provided with peptide-treated 1% sucrose/PBS or 1% sucrose/PBS alone as the drinking water ad libitum. Cholesterol levels were then determined. The data are shown in FIG. 7 as a scatter plot along with mean±SD. p values were determined by the one-way ANOVA test with a post hoc Tukey-Kramer test.

The nature of data set [1]: mouse pharmacokinetics, i.p., LC-MS SIM. The format is in vivo. As to conditions: male, BALB/cByJ, plasma, ip, BALB/c mice, i.p. 16 mg/kg. As for the experimental part:
Pharmacokinetics: The TSRI Institutional Animal Care and Use Committee approved all experimental protocols involving live animals. Male mice (20 g) on a BALB/cByJ background were obtained from the Rodent Breeding Colony of the Department of Animal Resources at TSRI, and were maintained on a chow diet. The cyclic peptide c[wLwReQeR], 1, was dissolved in PBS containing 1% sucrose, and sterile filtered through a 0.22-μm syringe filter before injection. Mice were fasted beginning 12 h before dosing, and continued the fast until after the 8-h time point blood draw was completed. Groups of three mice received a 16-mg/kg dose of the cyclic peptide via intraperitoneal injection (0.3 mL). Blood was drawn (30-60 μL) from the retro-orbital sinus into a heparinized capillary tube before dosing (0 min) and at different intervals from 30 min to 8 h after dosing. Plasma was isolated immediately from the whole blood by centrifugation at 5000 rpm for 10 min at 4° C. […] The resultant supernatant was analyzed by using LC-MS SIM as described below.
LC-MS SIM quantitation of peptide concentration: Cyclic peptide concentrations were quantified by using reverse-phase HPLC coupled with mass spectrometry. […] For quantitative calibration, standard curves were established using mouse EDTA-anticoagulated plasma spiked with various concentrations of the peptide. […]

Data set [2] can be described thus: body, liver and spleen weights, food and water intake. The format is in vivo, mouse. As to conditions: oral ~25 mg/kg/day, 10 weeks, LDLr-null mice. As for the experimental part:
Body weight was measured weekly. Mice were weighed prior to fasting. Liver and spleen weights were determined at the end of treatment.

Data set [3] can be described thus: plasma liver enzyme activities (ALT, AST). The data set is classed as in vivo, mouse. As to conditions: oral ~25 mg/kg/day, 10 weeks, LDLr-null mice. On the procedure:
Plasma liver enzyme activities: At the time of harvest (10 week), blood (˜0.5 mL) was collected after an overnight fast (14-16 h) by cardiac puncture into EDTA anti-coagulant coated tubes, and centrifuged at 4° C. for 10 min×5000 rpm. Plasma samples were stored at −80° C. until analysis. Plasma alanine aminotransferase (ALT) and aspartate aminotransferase (AST) concentrations were measured using Infinity ALT (GPT) and AST (GOT) liquid stable reagents, respectively, which is a colorimetric kinetic assay (Thermo Scientific). Assays were performed in accordance to the manufacturer's recommendations, adjusting the reagent volumes (20 μL plasma+200 μL reagent, 0.69-cm light pathlength of the solution in the well) for analysis of samples in 96-well flat bottom microplate format.

Non-standard residues stand in square brackets, D forms with d. Residues, ends and D or L forms follow the SMILES beside them.

In the case of `CC(C)C[C@@H]1NC(=O)[C@@H](Cc2c[nH]c3ccccc23)NC(=O)[C@H](CCCNC(=N)N)NC(=O)[C@@H](CCC(=O)O)NC(=O)[C@H](CCC(N)=O)NC(=O)[C@@H](CCC(=O)O)NC(=O)[C@H](CCCNC(=N)N)NC(=O)[C@@H](Cc2c[nH]c3ccccc23)NC1=O` [SEQ ID NO:1, c[wLwReQeR]] (cyclo([dW]L[dW]R[dE]Q[dE]R)), the “reduction in plasma cholesterol levels compared to control animals” value in the data set with LDLr-null mice (10-fold lower dose ~2.5 mg/kg/day in drinking water, after two weeks) is recorded as 17%. For the same compound, the “reduction in total plasma cholesterol compared to control animals” value in the data set with LDLr-null mice (oral in drinking water ~25 mg/kg/day, 2 weeks, female LDLr-null mice, high-fat diet) is listed as 55%. Also, in the data set with LDLr-null mice (oral in drinking water, LDLr-null mice, high-fat diet for 10 weeks, vs. controls), the “reduction of total plasma cholesterol levels (overview statement)” value is listed as “up to 55%”. In addition, the “total plasma cholesterol level lower than in control animals” value in the data set on LDLr-null mice (oral ~25 mg/kg/day, 10 weeks, LDLr-null mice, high-fat diet) stood at 30%. Besides, the “plasma cholesterol vs control (in words)” value in the data set with LDLr-null mice (~2.5 mg/kg/day in drinking water, completion of 10-week study) is listed as “no significant differences”. In data set [1], this compound gave a half-life of about 2 h. For the same compound, in data set [2], the “body weight, difference between groups” value is “No differences”; the “food or water intake, difference between groups” value is “No differences”; the “liver weight, difference between groups” value is recorded as “No differences”; the “spleen weight, difference between groups” value is listed as “No differences”. In addition, in data set [3], the “liver enzyme ALT, difference between groups” value is “No differences” and the “liver enzyme AST, difference between groups” value was “No differences”.

The half-life is the time in which the quantity being followed falls by half.

The record behind these values is patent US10092620B2, “Uses of cyclic peptides for treating and preventing atherosclerosis” (THE SCRIPPS RESEARCH INSTITUTE, priority 2013, dated 2018).
